Laboratory results published in patent US9926293B2, “Multivalent RAS binding compounds” (THE TRUSTEES OF COLUMBIA UNIVERSITY IN THE CITY OF NEW YORK, priority 2014, dated 2018).

Legend:
[1] = tested on: primary T-ALL cells with mutant NRAS (G13V and G13D); assay: Viability of patient-derived T-ALL samples cultured in vitro, mutant NRAS; type: cell-based; settings: Homo sapiens, 72 hours, relative to vehicle
Procedure: (§1) Primary Cell Co-Culture and In Vitro Cell Viability Assays.
(§2) Cells were harvested 72 hours after treatment and analyzed cell viability using the BD cell viability kit with liquid counting beads (BD Bioscience) gating out stroma cells (GFP+), dead cells and particles (PI+). We acquired data using a FACSCanto II flowcytometer (BD Bioscience) and analyzed it using FlowJo software (Tree Star, Inc.). Viability data is represented as % relative to vehicle treatment.

[2] = target: T1, KRAS^G12D with GDP (Homo sapiens, UniProt P01116, G12D); assay: Microscale thermophoresis, GDP-loaded KRAS^G12D; type: binding
T1 construct: made in house; host or cells: Escherichia coli BL21-Gold (DE3)
Procedure: […] After an additional 10 minutes incubation on ice, 200 uL of a 10 uM solution of KRAS^G12D was combined with 200 uL of a 20 uM solution of NT-647-NHS-ester dye (from a 652.4 μM stock). The protein/dye mixture was rotated at 4° C. for 30 minutes, before being separated from the excess dye and buffer exchanged into 25 mM Tris, 100 mM sodium chloride, 2 mM TCEP, and 5 mM MgCl2 via a nap-5 column. The test compounds were arrayed across a 16-point dilution series consisting of 1.5% DMSO with 25 mM Tris, 100 mM NaCl, 2 mM TCEP, 5 mM MgCl2 and 0.05% tween-20. Thermophoretic movement of the fluorescently labeled protein with the inhibitors was performed using a Monolith NT.115 (Nanotemper Technologies). RALA and RHOA were purchased commercially from Abcam (RALA CN:ab102555, RHOA CN:ab101594).

[3] = tested on: KRAS^LSLG12D; p53^fl/fl; Pdx1-Cre pancreatic tumors; assay: KP^f/fC mouse study; type: in vivo; settings: for toxicity: 30 mg/kg once daily i.p.
Procedure: KRAS^LSLG12D; p53^fl/fl; Pdx1-Cre (KP^F/FC) mice have been previously described (Bardeesy et al., 2006). Animals were housed in a barrier facility and monitored daily prior to enrollment on studies. All experiments were carried out in compliance with established IACUC guidelines of Columbia University.
Paraffin embedded samples were sectioned at […] and mounted on positively charged sample slides. These slides were heated at 60° C. for 15-30 minutes and subsequently rehydrated by standard protocols. Unmasking was performed in 10 mM citrate buffer, pH 6 for 5 minutes in a pressure cooker at high temperature, followed by a peroxidase quench in 3% hydrogen peroxide for 20 minutes. Blocking was carried out using 1.5% horse serum and 2% animal free blocker (Vector Labs) in TBS-T for 1 hour at room temperature. Slides were incubated with primary antibody (cleaved caspase-3, catalog no. 9664; ERK, catalog no. 4695; pERK, catalog no. 4376. All antibodies from Cell Signaling) overnight at 4° C. Slides were then allowed to equilibrate to room temperature prior to washing with TBS-T and incubation with secondary antibody (ImmPress polymer reagent, Vector Labs). Signal was developed with ImmPACT DAB Peroxidase Substrate (Vector Labs). Slides were counterstained with hematoxylin for 30 seconds. For quantification of cleaved-caspase 3 staining, all available 40× fields on three separate sections of biopsy samples and twenty total 40× fields from two separate sections of necropsy samples were analyzed for each study mouse.
Mice were monitored closely for changes in health status and were sacrificed after 5 days on study or once they met endpoint criteria in keeping with IACUC standards.

[4] = tested on: RAS-RAF and RAS-PI3K interaction in BJeLR cells; assay: Immunoprecipitation with HRAS antibody, blot for cRAF and PI3Kgamma; type: cell-based; settings: 10% FBS
Procedure: BJeLR cells were seeded 16 hours prior to use in 10% FBS in DMEM. […] After 6 hours cells were washed twice with ice cold buffer (25 mM tris, 100 mM NaCl, 1 mM TCEP, 5 mM MgCl2, 0.1% tween-20 and 1 protease inhibitor/25 mL). Cells were scrapped, pelleted at 13,000 rpm for 10 minutes at 4° C., then passed through a 26 gauge needle several times. The solution was spun down a second time at 13,000 rpm for 15 minutes at 4° C., to remove unlysed cells and debris. HRAS antibody (Santa cruz, SC-520) was then added to the lysate (1:100) and the solution was rocked at 4° C. for 16 hours. Protein A agrose beads were then added and the solution was rotated at 4° C. for an additional 6 hours. The solutions were spun down at 1500×g for 2 minutes and the supernatant was removed by syringe. The beads were washed twice by this process with buffer, then resuspended in 2.5×SDS.

[5] = tested on: primary T-ALL cells with wild-type NRAS; assay: Viability of patient-derived T-ALL samples cultured in vitro, wild-type NRAS; type: cell-based, human; settings: four samples, 5 μM, 72 hours
Procedure: as §1, §2

[6] = tested on: SW480 (KRAS^G12V); assay: Multicellular tumor spheroids in low adherence plates; type: cell-based; settings: 72 hours
Procedure: Multicellular Tumor Spheroids
Multicellular tumor spheroids (MCTSs) were grown in 96-well Corningware Ultra Low Attachment (ULA) Plates (CLS 3474). 100 μL of cell suspension containing 2×10^4 cells/ml were added to each well of the ULA plate containing 100 μL of a 2× solution of the desired concentration of compounds. Cells were incubated at 37° C., 5% CO2 for 72 hours to allow for MCTS formation. After 72 hours, 50 μL of a 50% solution of Alamar blue and medium was added and incubated for 12 hours prior to measurements on a Victor3 plate reader as previously described.

[7] = pre- vs post-treatment tumor samples, 30 mg/kg i.p.

With `NC1(C(=O)NCCCn2cc(-c3ccc(OC(F)(F)F)cc3)c3cc(CN4CCN(Cc5c(Cl)cccc5Cl)CC4)ccc32)CCNCC1` [Compound 31MEW44, 4-amino-N-(3-(5-((4-(2,6-dichlorobenzyl)piperazin-1-yl)methyl)-3-(4-(trifluoromethoxy)phenyl)-1H-indol-1-yl)propyl)piperidine-4-carboxamide] the viability at 5 µM [1] was 20 to 40%, the loss in affinity ([2]; GDP-loaded vs GppNHp-loaded KRAS^G12D) was “five-fold” and the Kd ([2]; MST, GDP-loaded KRAS^G12D) was 45 µM. For the same compound, the toxicity ([3]; KP^f/fC mice) was “toxicity was observed”, the “cleaved caspase-3 in tumor” value ([3]; immunohistochemistry, 30 mg/kg i.p.) was “modest increase in cleaved caspase-3” and the “phosphorylated AKT (S473) in tumor” value [3, 7] was “substantial decrease”. For the same compound, the “phosphorylated ERK1/2 in tumor” value [3, 7] was “substantial decrease”, the toxicity ([3]; wild-type mice) was “not in wild-type mice” and the “co-immunoprecipitated cRAF and PI3K” value [4] was “decreased levels of co-immunoprecipitated cRAF and PI3K”. For the same compound, the viability [5] was “no observed decrease in viability” and the “size of multicellular tumor spheroids” value [6] was “decreased in size in a dose-dependent manner”.
